| SMILES | melting point |
| --- | --- |
| CCCCc1oc(-c2ccc(C(F)(F)F)cc2)cc1CCCOc1cccc(CC(=O)O)c1 [Example 6(15), [3-(3-{2-Butyl-5-[4-(trifluoromethyl)phenyl]-3-furyl}propoxy)phenyl]acetic acid] | 80 to 82 °C |
| Cc1oc(-c2ccc(C(F)(F)F)cc2)cc1CCCCOc1ccc(SC(C)(C)C(=O)O)cc1 [Example 6(106), 2-Methyl-2-{[4-(4-{2-methyl-5-[4-(trifluoromethyl)phenyl]-3-furyl}butoxy)phenyl]thio}propionic acid] | 155 to 156 °C |
| Cc1oc(-c2ccc(C(F)(F)F)cc2)cc1COc1cccc(OCC(=O)O)c1 [Example 6(87), [3-({2-Methyl-5-[4-(trifluoromethyl)phenyl]-3-furyl}methoxy)phenoxy]acetic acid] | 118 to 119 °C |
| Cc1oc(-c2ccc(C(F)(F)F)cc2)cc1COc1cccc(CSC(C)(C)C(=O)O)c1 [Example 6(109), 2-Methyl-2-{[3-({2-methyl-5-[4-(trifluoromethyl)phenyl]-3-furyl}methoxy)benzyl]thio}propionic acid] | 148 to 149 °C |
| Cc1oc(-c2ccc(C(F)(F)F)cc2)cc1COc1ccc(F)c(CSC(C)(C)C(=O)O)c1 [Example 6(95), 2-{[2-Fluoro-5-({2-methyl-5-[4-(trifluoromethyl)phenyl]-3-furyl}methoxy)benzyl]thio}-2-methylpropionic acid] | 131 to 132 °C |
| Cc1oc(-c2ccc(C(F)(F)F)cc2)cc1COc1cc(CSC(C)(C)C(=O)O)ccc1Cl [Example 6(99), 2-{[4-Chloro-3-({2-methyl-5-[4-(trifluoromethyl)phenyl]-3-furyl}methoxy)benzyl]thio}-2-methylpropionic acid] | 140 to 142 °C |
| Cc1oc(-c2ccc(C(F)(F)F)cc2)cc1COc1ccc(CC(=O)O)cc1 [Example 6(9), [4-({2-Methyl-5-[4-(trifluoromethyl)phenyl]-3-furyl}methoxy)phenyl]acetic acid] | 147 to 149 °C |
| CCC(Cc1ccc(OCc2cc(-c3ccc(C(F)(F)F)cc3)oc2C)cc1C)C(=O)O (stereo not drawn) [Example 6(75), 2-[2-Methyl-4-({2-methyl-5-[4-(trifluoromethyl)phenyl]-3-furyl}methoxy)benzyl]butanoic acid] | 118 to 119 °C |
| Cc1oc(-c2ccccc2C(F)(F)F)cc1COc1ccc(SC(C)(C)C(=O)O)cc1 [Example 6(117), 2-Methyl-2-{[4-({2-methyl-5-[2-(trifluoromethyl)phenyl]-3-furyl}methoxy)phenyl]thio}propionic acid] | 115 to 116 °C |
| Cc1oc(-c2ccc(C(F)(F)F)cc2)cc1CCCOc1ccc(OC(C)(C)C(=O)O)cc1 [Example 6(31), 2-Methyl-2-[4-(3-{2-methyl-5-[4-(trifluoromethyl)phenyl]-3-furyl}propoxy)phenoxy]propionic acid] | 123 to 124 °C |
| Cc1oc(-c2ccc(C(F)(F)F)cc2)cc1COc1ccc(OC(C)(C)C(=O)O)c(Cl)c1 [Example 6(92), 2-[2-Chloro-4-({2-methyl-5-[4-(trifluoromethyl)phenyl]-3-furyl}methoxy)phenoxy]-2-methylpropionic acid] | 92 to 93 °C |
| Cc1oc(-c2ccc(C(F)(F)F)cc2)cc1CCOc1ccc(OCC(=O)O)cc1 [Example 6(23), [4-(2-{2-Methyl-5-[4-(trifluoromethyl)phenyl]-3-furyl}ethoxy)phenoxy]acetic acid] | 132 to 133 °C |
| COC(Cc1ccc(OCc2cc(-c3ccc(C(F)(F)F)cc3)oc2C)cc1C)C(=O)O (stereo not drawn) [Example 6(77), 2-Methoxy-3-[2-methyl-4-({2-methyl-5-[4-(trifluoromethyl)phenyl]-3-furyl}methoxy)phenyl]propionic acid] | 125 to 126 °C |
| Cc1oc(-c2ccc(C(F)(F)F)cc2)cc1COc1cccc(COC(C)(C)C(=O)O)c1 [Example 6(70), 2-Methyl-2-{[3-({2-methyl-5-[4-(trifluoromethyl)phenyl]-3-furyl}methoxy)benzyl]oxy}propionic acid] | 95 to 96 °C |
| Cc1oc(-c2cccc(C(F)(F)F)c2)cc1COc1ccc(OC(C)(C)C(=O)O)cc1 [Example 6(63), 2-Methyl-2-[4-({2-methyl-5-[3-(trifluoromethyl)phenyl]-3-furyl}methoxy)phenoxy]propionic acid] | 83 to 84 °C |
| Cc1oc(-c2ccc(C(F)(F)F)cc2)cc1COc1ccc2cc(CCC(=O)O)ccc2c1 [Example 6(34), 3-[6-({2-Methyl-5-[4-(trifluoromethyl)phenyl]-3-furyl}methoxy)-2-naphthyl]propionic acid] | 191 to 192 °C |
| Cc1oc(-c2ccc(C(F)(F)F)cc2)cc1CCCCOc1ccc(OC(C)(C)C(=O)O)cc1 [Example 6(104), 2-Methyl-2-[4-(4-{2-methyl-5-[4-(trifluoromethyl)phenyl]-3-furyl}butoxy)phenoxy]propionic acid] | 67 to 69 °C |
| COc1ccc(CCC(=O)O)cc1OCc1cc(-c2ccc(C(F)(F)F)cc2)oc1C [Example 6(82), 3-[4-Methoxy-3-({2-methyl-5-[4-(trifluoromethyl)phenyl]-3-furyl}methoxy)phenyl]propionic acid] | 128 to 129 °C |

The remaining lines, values ahead:

| melting point | SMILES |
| --- | --- |
| 102 to 103 °C | CCc1oc(-c2ccc(C(F)(F)F)cc2)cc1CCCOc1ccc(C(C)(C)C(=O)O)cc1 [Example 6(44), 2-[4-(3-{2-Ethyl-5-[4-(trifluoromethyl)phenyl]-3-furyl}propoxy)phenyl]-2-methylpropionic acid] |
| 105 to 107 °C | Cc1oc(-c2ccc(C(F)(F)F)cc2)cc1COc1ccc(C(C)(C)C(=O)O)cc1 [Example 6(86), 2-Methyl-2-[4-({2-methyl-5-[4-(trifluoromethyl)phenyl]-3-furyl}methoxy)phenyl]propionic acid] |
| 81 to 82 °C | Cc1oc(-c2cccc(C(F)(F)F)c2)cc1COc1cccc(CSC(C)(C)C(=O)O)c1 [Example 6(59), 2-Methyl-2-{[3-({2-methyl-5-[3-(trifluoromethyl)phenyl]-3-furyl}methoxy)benzyl]thio}propionic acid] |
| 94 to 95 °C | CCc1oc(-c2ccc(C(F)(F)F)cc2)cc1CCCOc1cccc(C(C)(C)C(=O)O)c1 [Example 6(45), 2-[3-(3-{2-Ethyl-5-[4-(trifluoromethyl)phenyl]-3-furyl}propoxy)phenyl]-2-methylpropionic acid] |
| 127 to 128 °C | Cc1oc(-c2ccc(C(F)(F)F)cc2)cc1COc1cccc(C(C)(C)C(=O)O)c1 [Example 6(85), 2-Methyl-2-[3-({2-methyl-5-[4-(trifluoromethyl)phenyl]-3-furyl}methoxy)phenyl]propionic acid] |
| 124 to 126 °C | Cc1nc(SCCc2cc(-c3ccc(F)cc3)oc2C)sc1CC(=O)O [Example 6(38), [2-({2-[5-(4-Fluorophenyl)-2-methyl-3-furyl]ethyl}thio)-4-methyl-1,3-thiazol-5-yl]acetic acid] |
| 168 to 169 °C | COc1cc(OCc2cc(-c3ccc(C(F)(F)F)cc3)oc2C)ccc1CC(=O)O [Example 6(10), [2-Methoxy-4-({2-methyl-5-[4-(trifluoromethyl)phenyl]-3-furyl}methoxy)phenyl]acetic acid] |
| 140 to 141 °C | Cc1oc(-c2ccc(C(F)(F)F)cc2)cc1/C=C/c1ccc(OC(C)(C)C(=O)O)cc1 [Example 22(1), 2-Methyl-2-[4-((E)-2-{2-methyl-5-[4-(trifluoromethyl)phenyl]-3-furyl}ethenyl)phenoxy]propionic acid] |
| 176 to 177 °C | Cc1oc(-c2ccc(C(F)(F)F)cc2)cc1CCc1nc(C(C)C)c(CC(=O)O)s1 [Example 13(3), [4-Isopropyl-2-(2-{2-methyl-5-[4-(trifluoromethyl)phenyl]-3-furyl}ethyl)-1,3-thiazol-5-yl]acetic acid] |
| 84 to 85 °C | O=C(O)CSCc1cccc(OCc2cc(-c3ccccc3)oc2C(F)(F)F)c1 [Example 5(4), [(3-{[5-Phenyl-2-(trifluoromethyl)-3-furyl]methoxy}benzyl)thio]acetic acid] |
| 155 to 156 °C | Cc1oc(-c2ccc(F)cc2)cc1C(=O)N(C)c1cccc(CSCC(=O)O)c1 [Example 1(1), [(3{[5-(4-Fluorophenyl)-2-methyl-3-furoyl](methyl)amino}benzyl)thio]acetic acid] |
| 116 to 117 °C | Cc1cc(-c2ccc(C(F)(F)F)cc2)oc1COc1ccc(OC(C)(C)C(=O)O)cc1 [Example 20(2), 2-Methyl-2-[4-({3-methyl-5-[4-(trifluoromethyl)phenyl]-2-furyl}methoxy)phenoxy]propionic acid] |
| 113 to 114 °C | Cc1oc(-c2ccc(C(F)(F)F)cc2)cc1CCCOc1ccc(CC(=O)O)cc1 [Example 6(8), [4-(3-{2-Methyl-5-[4-(trifluoromethyl)phenyl]-3-furyl}propoxy)phenyl]acetic acid] |
| 118 to 120 °C | Cc1cc(OCCc2cc(-c3ccc(C(F)(F)F)cc3)oc2C)ccc1CCC(=O)O [Example 6(22), 3-[2-Methyl-4-(2-{2-methyl-5-[4-(trifluoromethyl)phenyl]-3-furyl}ethoxy)phenyl]propionic acid] |
| 173 to 174 °C | Cc1oc(-c2ccc(C(F)(F)F)cc2)cc1CC(=O)Nc1cccc(CSCC(=O)O)c1 [Example 4(1), ({3-[({2-Methyl-5-[4-(trifluoromethyl)phenyl]-3-furyl}acetyl)amino]benzyl}thio)acetic acid] |
| 104 to 105 °C | CCc1oc(-c2ccc(C(F)(F)F)cc2)cc1CCCOc1cc(CC(=O)O)ccc1Cl [Example 6(98), [4-Chloro-3-(3-{2-ethyl-5-[4-(trifluoromethyl)phenyl]-3-furyl}propoxy)phenyl]acetic acid] |
| 115 to 116 °C | Cc1oc(-c2ccc(C(F)(F)F)cc2)cc1CCOc1ccc(CC(=O)O)cc1 [Example 6(13), [4-(2-{2-Methyl-5-[4-(trifluoromethyl)phenyl]-3-furyl}ethoxy)phenyl]acetic acid] |
| 168 to 169 °C | Cc1nc(CCc2cc(-c3ccc(C(F)(F)F)cc3)oc2C)sc1CC(=O)O [Example 13(2), [4-Methyl-2-(2-{2-methyl-5-[4-(trifluoromethyl)phenyl]-3-furyl}ethyl)-1,3-thiazol-5-yl]acetic acid] |
